Reference: patent US12653827B2, “Methods of treating indolent systemic mastocytosis” (Telios Pharma Inc., priority 2024, dated 2026)

How the values were obtained:
[1] = ISM patients, cited from earlier work
mast cells = assay: Phosphorylation and degranulation markers in antigen-stimulated mast cells grown with chronic SCF (FIG. 21); type: cell-based; settings: 1 μM, antigen 15 minutes
Procedure: Histamine release, CD63 expression, CD203c expression, pBTK (Y223) levels, pP38 (T180/Y182) levels, pPLCg1 (S1248) levels, pERK (T202/Y204) levels, and pS6 (S235/236) levels are shown. Mast cells were grown with continuous (chronic) exposure to SCF and then stimulated with antigen (Ag) for 15 minutes, leading to phosphorylation of multiple kinases, including pBTK, pPLCγ1, pP38, pERK, and pS6 ribosome. This stimulation increases degranulation markers, including CD63, CD203c, and histamine release.

[2] = cited from earlier work
basophils = assay: Comparison of BTK inhibitors by BAT (CD63 and CD203c); type: cell-based, human; settings: concentration of 1 μM; 2 hours; blood from a healthy donor
Procedure: The BAT assay using the Flow Cast Basophil Activation Kit (Buhlmann Diagnostics; Catalog #B-CCR-STCON) was then conducted following manufacturer instructions by (1) stimulating the blood with anti-FcεR stimulation control in stimulation buffer with IL-3 and staining cells for CCR3 and CD63 for 15 minutes at 37° C., (2) lysing red blood cells and fixing cells with Lysing Reagent at room temperature for 10 minutes, (3) washing cells with Wash Buffer, and (4) acquiring data on a flow cytometer. Activated basophils were defined as CCR3+, low side scatter and CD63+. Percent of activated basophils was calculated as number of activated basophils over the total number of basophils. A four-parameter logistic regression was applied to determine the EC50 and EC90.
Blood samples were gently rocked at room temperature for 2 hours. […] Activated basophils were also defined as CCR3+, low side scatter and CD203c+.

SMILES: Cn1cc(-c2cc3c(N4CCN(c5ncc([C@@](C)(N)c6ccc(F)cc6)cn5)CC4)ncnn3c2)cn1 [avapritinib]
- reduction of total symptom score compared to the placebo ([1]; 25 mg QD, Week 24, ISM-SAF survey): 5.7 points
- adverse reactions leading to dose interruptions ([1]; 25 mg QD): 5%
- treated subjects who failed to achieve a mean symptom score reduction of 30% ([1]; first 6 months of treatment): approximately half
- subjects who achieved a 50% symptom score reduction ([1]; within the first 6 months of treatment): about a third
- phosphorylation and degranulation (activation) (mast cells): only partially inhibits activation

SMILES: Cc1nc(Nc2ncc(C(=O)Nc3c(C)cccc3Cl)s2)cc(N2CCN(CCO)CC2)n1 [dasatinib]
- subjects who discontinued treatment due to toxicity ([2]; overall, AdvSM and ISM subjects): 34%
- pleural effusion, grade 3 adverse event ([2]; patients overall): 10%

SMILES: CC#CC(=O)N1CCC[C@H]1c1nc(-c2ccc(C(=O)Nc3ccccn3)cc2)c2c(N)nccn12 [acalabrutinib, (S)-4-(8-amino-3-(1-(but-2-ynoyl)pyrrolidin-2-yl)imidazo[1,5-a]pyrazin-1-yl)-N-(pyridin-2-yl)benzamide, reference compound]
- effect on basophil activation (CD63+, CD203c+) (basophils): no effect on basophil activation
